Results reported in patent US10159640B2, “Prebiotic oral care compositions containing amino acids” (COLGATE-PALMOLIVE COMPANY, priority 2013, dated 2018).

Experiments:
Assay type in all cases: cell-based
[1] = test system: Streptococcus sobrinus; test: Metabolic activity, Biolog phenotype microarray; settings: control without dipeptide = 1
Protocol: (§1) The extent of metabolic activity of the tested bacteria in the presence of the above-mentioned dipeptides after 24 hours and 48 hours was investigated through a high throughput phenotype microarray system (PM) for microbial cells (Biolog Inc.). Each PM can contain up to 95 different biochemical compounds (e.g. di-peptides) that may act as substrates for bacteria as well as one negative control, not containing the substrates. Microarray plates were used in which the different wells of each plate were pre-loaded (by the manufacturer, Biolog Inc.) with different di-peptides to be tested. Each bacterial species was tested using a separate microarray plate. Thus, a single bacterial species was tested with a variety of dipeptides on each particular plate. The microarrays are based on redox technology, using cell respiration as a universal reporter. Active cell respiration results in the reduction of a tetrazolium dye and in the formation of a strong color—for example, when using the tetrazolium dye “Biolog Redox Dye Mix D”, the color changes from transparent/colourless to purple when the dye is reduced. The observation of this color change indicates which of the substrates improve the metabolic activity and health of the cells. Each bacterial species was collected from blood agar plates (incubated for 48 hours anaerobically at 37° C.) and transferred to an IF-0 Base inoculation fluid (Biolog Inc.), which is a nutritionally poor medium. The resulting cell suspension was adjusted to a transmittance of 42% (relative to the transmittance of the base inoculation fluid with no bacterial species present) at 492 nm using a BioRad SmartSpec 3000 Photometer (the adjustment being effected by adding either further inoculation fluid or further bacteria until the transmittance of 42% was achieved). A 1:5 dilution of this suspension was prepared by mixing 3 mL of the 42% transmittance cell suspension with 15 mL of an inoculation fluid (which inoculation fluid was formed by mixing 11.6 mL sterile water, 62.5 mL IF-0 base inoculation fluid and 0.9 mL of the tetrazolium dye “Biolog Redox Dye mix D”), resulting in a final cell density which was equal to 85% transmittance using a BioRad SmartSpec 3000 Photometer. 680 μL of a 2M sodium succinate/200 μM ferric citrate solution in distilled water was added to 68 mL of the 85% transmittance cell suspension and 100 μL of this mixture was added to each well (the various di-peptides being already present in powder form in the relevant wells of the plate as obtained from the supplier i.e. Biolog Inc.). All plates were incubated in an anaerobic atmosphere at 37° C. Color changes were measured spectrophotometrically at 492 nm (Thermo Scientific Multiskan Ascent) at 24 hrs and 48 hrs using the same plate at both time points. […] After 24 hrs and 48 hrs under continuous shaking in a Multiscan microplate reader, the optical density (OD) of the synthetic medium at 24 hours and 48 hours was measured (using the microplate reader) at a wavelength of 492 nm for each combination of bacterium/dipeptide, and for each of their respective controls (i.e. which contained the particular bacterium but no dipeptide). […] The experiment was carried out three times for each combination of bacterium with dipeptide, with each repeat being carried out on a different day (thus providing three biological replicas). The controls were also carried out three times, as above. The values shown are the average (mean) of the three single values obtained (as detailed above) for each combination of bacterium with dipeptide, at 24 hrs and at 48 hrs.

[2] = test system: Streptococcus mutans; test: Metabolic activity, Biolog phenotype microarray; settings: control without dipeptide = 1
Protocol: as §1

[3] = test system: Fusobacterium nucleatum; test: Metabolic activity, Biolog phenotype microarray; settings: control without dipeptide = 1
Protocol: as §1

[4] = test system: Porphyromonas gingivalis; test: Metabolic activity, Biolog phenotype microarray; settings: control without dipeptide = 1
Protocol: as §1

[5] = test system: Streptococcus gordonii; test: Metabolic activity, Biolog phenotype microarray; settings: control without dipeptide = 1
Protocol: as §1

[6] = test system: Tannerella forsythia; test: Metabolic activity, Biolog phenotype microarray; settings: control without dipeptide = 1
Protocol: as §1

[7] = test system: Veillonella parvula; test: Metabolic activity, Biolog phenotype microarray; settings: control without dipeptide = 1
Protocol: as §1

[8] = test system: Streptococcus sanguinis; test: Metabolic activity, Biolog phenotype microarray; settings: control without dipeptide = 1
Protocol: as §1

[9] = test system: Streptococcus mitis; test: Metabolic activity, Biolog phenotype microarray; settings: control without dipeptide = 1
Protocol: as §1

[10] = test system: Capnocytophaga sputigena; test: Metabolic activity, Biolog phenotype microarray; settings: control without dipeptide = 1
Protocol: as §1

[11] = test system: Actinomyces naeslundii; test: Metabolic activity, Biolog phenotype microarray; settings: control without dipeptide = 1
Protocol: as §1

[12] = test system: Actinomyces viscosus; test: Metabolic activity, Biolog phenotype microarray; settings: control without dipeptide = 1
Protocol: as §1

[13] = test system: Prevotella intermedia; test: Metabolic activity, Biolog phenotype microarray; settings: control without dipeptide = 1
Protocol: as §1

[14] = test system: Aggregatibacter actinomycetemcomitans; test: Metabolic activity, Biolog phenotype microarray; settings: control without dipeptide = 1
Protocol: as §1

[15] = test system: Streptococcus salivarius; test: Metabolic activity, Biolog phenotype microarray; settings: control without dipeptide = 1
Protocol: as §1

[16] = test system: beneficial oral bacteria and pathogenic oral bacteria; test: Metabolic activity, whole panel: prebiotic effect; settings: threshold value of 2
Protocol: Substrates that were able to increase the metabolic activity of at least one of the above beneficial bacteria while not or only minimally increasing the growth of the pathogenic bacteria are considered to be prebiotic substrates. The extent of metabolic activity of the tested bacteria in the presence of the above-mentioned dipeptides after 24 hours and 48 hours was investigated through a high throughput phenotype microarray system (PM) for microbial cells (Biolog Inc.). Each PM can contain up to 95 different biochemical compounds (e.g. di-peptides) that may act as substrates for bacteria as well as one negative control, not containing the substrates. Microarray plates were used in which the different wells of each plate were pre-loaded (by the manufacturer, Biolog Inc.) with different di-peptides to be tested. Each bacterial species was tested using a separate microarray plate. Thus, a single bacterial species was tested with a variety of dipeptides on each particular plate. The microarrays are based on redox technology, using cell respiration as a universal reporter. Active cell respiration results in the reduction of a tetrazolium dye and in the formation of a strong color—for example, when using the tetrazolium dye “Biolog Redox Dye Mix D”, the color changes from transparent/colourless to purple when the dye is reduced. The observation of this color change indicates which of the substrates improve the metabolic activity and health of the cells. Each bacterial species was collected from blood agar plates (incubated for 48 hours anaerobically at 37° C.) and transferred to an IF-0 Base inoculation fluid (Biolog Inc.), which is a nutritionally poor medium. The resulting cell suspension was adjusted to a transmittance of 42% (relative to the transmittance of the base inoculation fluid with no bacterial species present) at 492 nm using a BioRad SmartSpec 3000 Photometer (the adjustment being effected by adding either further inoculation fluid or further bacteria until the transmittance of 42% was achieved). A 1:5 dilution of this suspension was prepared by mixing 3 mL of the 42% transmittance cell suspension with 15 mL of an inoculation fluid (which inoculation fluid was formed by mixing 11.6 mL sterile water, 62.5 mL IF-0 base inoculation fluid and 0.9 mL of the tetrazolium dye “Biolog Redox Dye mix D”), resulting in a final cell density which was equal to 85% transmittance using a BioRad SmartSpec 3000 Photometer. 680 μL of a 2M sodium succinate/200 μM ferric citrate solution in distilled water was added to 68 mL of the 85% transmittance cell suspension and 100 μL of this mixture was added to each well (the various di-peptides being already present in powder form in the relevant wells of the plate as obtained from the supplier i.e. Biolog Inc.). All plates were incubated in an anaerobic atmosphere at 37° C. Color changes were measured spectrophotometrically at 492 nm (Thermo Scientific Multiskan Ascent) at 24 hrs and 48 hrs using the same plate at both time points. […] After 24 hrs and 48 hrs under continuous shaking in a Multiscan microplate reader, the optical density (OD) of the synthetic medium at 24 hours and 48 hours was measured (using the microplate reader) at a wavelength of 492 nm for each combination of bacterium/dipeptide, and for each of their respective controls (i.e. which contained the particular bacterium but no dipeptide). […] The experiment was carried out three times for each combination of bacterium with dipeptide, with each repeat being carried out on a different day (thus providing three biological replicas). The controls were also carried out three times, as above. The values shown are the average (mean) of the three single values obtained (as detailed above) for each combination of bacterium with dipeptide, at 24 hrs and at 48 hrs. […] This value was selected in order to exclude low-stimulating metabolites and avoid false positive results.

Compound | metabolic activity: OD 492 nm divided by OD of control ([1]; 24 hrs) | metabolic activity: OD 492 nm divided by OD of control ([1]; 48 hrs) | metabolic activity: OD 492 nm divided by OD of control ([2]; 24 hrs) | metabolic activity: OD 492 nm divided by OD of control ([2]; 48 hrs) | metabolic activity: OD 492 nm divided by OD of control ([3]; 24 hrs) | metabolic activity: OD 492 nm divided by OD of control ([3]; 48 hrs) | metabolic activity: OD 492 nm divided by OD of control ([4]; 24 hrs) | metabolic activity: OD 492 nm divided by OD of control ([4]; 48 hrs) | metabolic activity: OD 492 nm divided by OD of control ([5]; 24 hrs) | metabolic activity: OD 492 nm divided by OD of control ([5]; 48 hrs) | metabolic activity: OD 492 nm divided by OD of control ([6]; 24 hrs) | metabolic activity: OD 492 nm divided by OD of control ([6]; 48 hrs) | metabolic activity: OD 492 nm divided by OD of control ([7]; 24 hrs) | metabolic activity: OD 492 nm divided by OD of control ([7]; 48 hrs) | metabolic activity: OD 492 nm divided by OD of control ([8]; 24 hrs) | metabolic activity: OD 492 nm divided by OD of control ([8]; 48 hrs) | metabolic activity: OD 492 nm divided by OD of control ([9]; 24 hrs) | metabolic activity: OD 492 nm divided by OD of control ([9]; 48 hrs) | metabolic activity: OD 492 nm divided by OD of control ([10]; 24 hrs) | metabolic activity: OD 492 nm divided by OD of control ([10]; 48 hrs) | further results
NC(Cc1c[nH]cn1)C(=O)NC(Cc1c[nH]c2ccccc12)C(=O)O (stereo not shown) [His-Trp] | 1.0811 | 1.2074 | 1.0292 | 1.5031 | 0.9185 | 0.9774 | 1.0126 | 1.3518 | 1.0431 | 1.1070 | 0.8973 | 0.9897 | 1.1364 | 1.4269 | 1.0228 | 1.0830 | 0.9734 | 1.0242 | 1.3266 | 1.3068 | metabolic activity: OD 492 nm divided by OD of control ([11]; 24 hrs): 1.3153; metabolic activity: OD 492 nm divided by OD of control ([11]; 48 hrs): 1.5439; metabolic activity: OD 492 nm divided by OD of control ([12]; 24 hrs): 1.8735; metabolic activity: OD 492 nm divided by OD of control ([12]; 48 hrs): 2.2797; metabolic activity: OD 492 nm divided by OD of control ([13]; 24 hrs): 1.0278; metabolic activity: OD 492 nm divided by OD of control ([13]; 48 hrs): 1.2057; metabolic activity: OD 492 nm divided by OD of control ([14]; 24 hrs): 0.9439; metabolic activity: OD 492 nm divided by OD of control ([14]; 48 hrs): 0.9818; metabolic activity: OD 492 nm divided by OD of control ([15]; 24 hrs): 0.9767; metabolic activity: OD 492 nm divided by OD of control ([15]; 48 hrs): 1.0689; prebiotic effects (metabolic activity) ([16]; 48 hrs): exhibited prebiotic effects
Trp-Leu | 1.1681 | 1.2761 | 1.0145 | 1.1337 | 0.9945 | 1.0254 | 1.0236 | 1.2127 | 1.2109 | 1.2858 | 1.0234 | 1.1079 | 0.8734 | 0.7918 | 0.9310 | 0.9561 | 1.0445 | 1.0524 | 0.8565 | 0.9454 | metabolic activity: OD 492 nm divided by OD of control ([11]; 24 hrs): 1.1778; metabolic activity: OD 492 nm divided by OD of control ([11]; 48 hrs): 1.4354; metabolic activity: OD 492 nm divided by OD of control ([12]; 24 hrs): 1.6496; metabolic activity: OD 492 nm divided by OD of control ([12]; 48 hrs): 2.0774; metabolic activity: OD 492 nm divided by OD of control ([13]; 24 hrs): 1.0663; metabolic activity: OD 492 nm divided by OD of control ([13]; 48 hrs): 1.0399; metabolic activity: OD 492 nm divided by OD of control ([14]; 24 hrs): 1.0357; metabolic activity: OD 492 nm divided by OD of control ([14]; 48 hrs): 1.1455; metabolic activity: OD 492 nm divided by OD of control ([15]; 24 hrs): 1.0960; metabolic activity: OD 492 nm divided by OD of control ([15]; 48 hrs): 1.1505; prebiotic effects (metabolic activity) ([16]; 48 hrs): exhibited prebiotic effects
Ser-Gln | 1.1504 | 1.6280 | 1.2511 | 1.7642 | 1.2502 | 1.6185 | 1.1453 | 1.4999 | 0.9754 | 1.4584 | 1.1929 | 1.4647 | 0.8812 | 0.8706 | 1.1901 | 1.6298 | 1.0595 | 1.5980 | 2.2409 | 1.6963 | metabolic activity: OD 492 nm divided by OD of control ([11]; 24 hrs): 1.2183; metabolic activity: OD 492 nm divided by OD of control ([11]; 48 hrs): 1.5857; metabolic activity: OD 492 nm divided by OD of control ([12]; 24 hrs): 1.6173; metabolic activity: OD 492 nm divided by OD of control ([12]; 48 hrs): 2.0308; metabolic activity: OD 492 nm divided by OD of control ([13]; 24 hrs): 1.2382; metabolic activity: OD 492 nm divided by OD of control ([13]; 48 hrs): 1.3661; metabolic activity: OD 492 nm divided by OD of control ([14]; 24 hrs): 0.9996; metabolic activity: OD 492 nm divided by OD of control ([14]; 48 hrs): 1.1574; metabolic activity: OD 492 nm divided by OD of control ([15]; 24 hrs): 1.1847; metabolic activity: OD 492 nm divided by OD of control ([15]; 48 hrs): 1.6185; prebiotic effects (metabolic activity) ([16]; 24 hrs): exhibited prebiotic effects; prebiotic effects (metabolic activity) ([16]; 48 hrs): exhibited prebiotic effects
